According to US8546443B2, “Benzylic oxindole pyrimidines” (Boehringer Ingelheim International GmbH, priority 2010, dated 2013):

Assays:
[1] = test system: TC-71 (Ewing's sarcoma) cells; assay: Cell proliferation assay, TC-71 (Alamar Blue); type: cell-based; conditions: 72 h with compound, EC50 ranges as class symbols
Method: Cell Proliferation Assays
Compounds were tested for their anti-proliferative effects in the TC-71 (Ewing's sarcoma) and HCT 116 (colorectal carcinoma) cancer cell lines in vitro. Published scientific data has described that interference with the Insulin-like Growth Factor-1 Receptor (IGF-1R) signaling pathway reduces the proliferation of TC-71 cells. Therefore TC-71 cells served as a positive control cell line for monitoring the activity of compounds against IGF-1R-mediated cell proliferation. […] Therefore the HCT 116 cell line served as a negative control.
2000 TC-71 cells or 1000 HCT 116 cells were seeded per well in 180 μL IMDM+10% foetal calf serum (FCS)+ penicillin/streptomycin into 96-well microtitre plates. The plates were placed in a cell culture incubator (37° C. in a humidified atmosphere of […]/5 CO2) overnight. The following day, serial dilutions of compounds, prepared in duplicates, were transferred onto the cell layers (controls without compound). The cells were cultivated for a further 72 h in the cell culture incubator. 20 μL of Alamar Blue™ (Serotec Ltd, Düsseldorf, Germany) was added to each well and the plates incubated for 7 h in the cell culture incubator. Fluorescence (extinction wavelength of 544 nm and emission at 590 nm) was then measured and the normalized data fitted by iterative calculation with a sigmoidal curve analysis program (Graph Pad Prism) with a variable Hill slope to determine the IC50 values.

[2] = molecular target: T1, cytoplasmic kinase domain of human IGF-1R (IGF-1R-GST) (Homo sapiens, UniProt P08069); assay: Insulin-like growth factor-1 receptor (IGF-1R) kinase assay (DELFIA); type: biochemical; conditions: IGF-1R-GST kinase activity, read-out: IGF1R IC50
T1 construct: cytoplasmic kinase domain of human IGF-1R (amino acids 964-1370); GST (glutathione-S-transferase); made in house; host or cells: High Five insect cells (Invitrogen)
Summary of the method: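 GST-tagged IGF-1R cytoplasmic kinase domain phosphorylates pEY with biotinylated pEY for 40 min at RT; EDTA stop. Product captured on streptavidin, detected with europium anti-phosphotyrosine antibody by DELFIA time-resolved fluorescence; IC50 from inhibition curves.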

T1 sequence (P08069 964-1367 limits assumed): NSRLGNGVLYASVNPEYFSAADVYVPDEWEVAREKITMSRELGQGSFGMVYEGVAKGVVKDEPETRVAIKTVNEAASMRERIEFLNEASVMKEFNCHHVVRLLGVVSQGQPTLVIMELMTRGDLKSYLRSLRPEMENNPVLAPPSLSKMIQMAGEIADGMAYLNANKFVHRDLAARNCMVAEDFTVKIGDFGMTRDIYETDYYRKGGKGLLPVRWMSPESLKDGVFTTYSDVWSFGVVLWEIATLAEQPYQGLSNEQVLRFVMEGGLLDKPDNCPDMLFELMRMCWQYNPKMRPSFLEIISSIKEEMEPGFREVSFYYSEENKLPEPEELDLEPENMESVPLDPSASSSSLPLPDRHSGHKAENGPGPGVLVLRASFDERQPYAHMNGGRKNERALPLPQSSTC

SMILES | EC50 [1] | IC50 [2]
CNC1(C(=O)N2CCCC(c3ccc(Nc4ncc(Br)c(NCc5cccc6c5C(C)(C)C(=O)N6)n4)c(C)c3)C2)CC1 (racemic) [Example I-291] | 50 to 250 nM | 6 nM
CC(C)(O)CN1CCC(c2ccc(Nc3ncc(Cl)c(NCc4cccc5c4C(C)(C)C(=O)N5)n3)c(OC(F)F)c2)CC1 [Example I-342] | < 50 nM | 3 nM
CNC(=O)CN1CCCC(c2ccc(Nc3ncc(Br)c(NCc4cccc5c4C(C)(C)C(=O)N5)n3)cc2)C1 (racemic) [Example I-365] | 50 to 250 nM | 1 nM
CCNC(=O)N1CCC(c2ccc(Nc3ncc(Cl)c(NCc4cccc5c4C(C)(C)C(=O)N5)n3)c(C)c2)CC1 [Example I-293] | 50 to 250 nM | 10 nM
Cc1cc(C2CCCN(CC(C)(C)O)C2)ccc1Nc1ncc(Cl)c(NCc2cccc3c2C(C)(C)C(=O)N3)n1 (racemic) [Example I-328] | < 50 nM | 1 nM
COc1cc(N2CCN(C)CC2)ccc1Nc1ncc(Cl)c(NCc2cccc3c2C(C)(C)C(=O)N3)n1 [Example I-97] | < 50 nM | 2 nM
Cc1cc(C2CCN(C)CC2)ccc1Nc1ncc(C(F)(F)F)c(NCc2cccc3c2C(C)(C)C(=O)N3)n1 [Example I-308] | < 50 nM | 0.8 nM
COc1cc(N2CCN(C)CC2)ccc1Nc1ncc(C(F)(F)F)c(NCc2cccc3c2C(C)(C)C(=O)N3)n1 [Example I-104] | < 50 nM | 0.1 nM
CC1(C)C(=O)Nc2cccc(CNc3nc(Nc4ccc(C5CCCN(CC(O)C(F)(F)F)C5)cc4)ncc3Cl)c21 (racemic) [Example I-333] | 250 to 3000 nM | 2 nM
CNC(=O)CN1CCCC(c2ccc(Nc3ncc(Cl)c(NCc4cccc5c4C(C)(C)C(=O)N5)n3)cc2)C1 (racemic) [Example I-379] | 50 to 250 nM | 6 nM
Cc1cc(Nc2ncc(Cl)c(NCc3cccc4c3C(C)(C)C(=O)N4)n2)ccc1C1CCN(CC(C)(C)O)CC1 [Example I-334] | < 50 nM | 0.4 nM
COCCN1CCCC(c2ccc(Nc3ncc(C(F)(F)F)c(NCc4cccc5c4C(C)(C)C(=O)N5)n3)c(C)c2)C1 (racemic) [Example I-356] | < 50 nM | 0.8 nM
COCCN1CCC(c2ccc(Nc3ncc(Br)c(NCc4cccc5c4C(C)(C)C(=O)N5)n3)c(C)c2)CC1 [Example I-221] | < 50 nM | 0.98 nM
COc1cc(N2CCN(CC(C)(C)O)CC2)ccc1Nc1ncc(C(F)(F)F)c(NCc2cccc3c2C(C)(C)C(=O)N3)n1 [Example I-304] | < 50 nM | 1 nM
COCCN1CCN(c2ccc(Nc3ncc(C(F)(F)F)c(NCc4cccc5c4C(C)(C)C(=O)N5)n3)c(OC)c2)CC1 [Example I-353] | < 50 nM | 2 nM
COc1cc(C2CCCN(CCO)C2)ccc1Nc1ncc(C(F)(F)F)c(NCc2cccc3c2C(C)(C)C(=O)N3)n1 (racemic) [Example I-351] | < 50 nM | 0.5 nM
Cc1cc(C2CCN(C(=O)CN(C)C)CC2)ccc1Nc1ncc(Br)c(NCc2cccc3c2C(C)(C)C(=O)N3)n1 [Example I-57] | < 50 nM | 0.76 nM
Cc1cc(Nc2ncc(C(F)(F)F)c(NCc3cccc4c3C(C)(C)C(=O)N4)n2)ccc1C1CCN(CC(C)(C)O)CC1 [Example I-303] | < 50 nM | 0.2 nM
CC1(C)C(=O)Nc2cccc(CNc3nc(Nc4ccc(C5CCN(CCCF)CC5)cc4)ncc3Cl)c21 [Example I-213] | 50 to 250 nM | 4 nM
Cc1cc(N2CCN(CC(C)(C)O)CC2)ccc1Nc1ncc(C(F)(F)F)c(NCc2cccc3c2C(C)(C)C(=O)N3)n1 [Example I-305] | 50 to 250 nM | 2 nM
COCCN1CCC[C@H](c2ccc(Nc3ncc(Br)c(NCc4cccc5c4C(C)(C)C(=O)N5)n3)c(C)c2)C1 [Example I-363] | 50 to 250 nM | 2 nM
Cc1cc(C2CCN(C)CC2)ccc1Nc1ncc(Cl)c(NCc2cccc3c2C(C)(C)C(=O)N3)n1 [Example I-332] | < 50 nM | 1 nM
Cc1cc(C2CCN(C(=O)N(C)C)CC2)ccc1Nc1ncc(Cl)c(NCc2cccc3c2C(C)(C)C(=O)N3)n1 [Example I-67] | 50 to 250 nM | 15 nM
CN1CCC(n2cc(Nc3ncc(Cl)c(NCc4cccc5c4C(C)(C)C(=O)N5)n3)cn2)CC1 [Example I-102] | 50 to 250 nM | 4 nM

SMILES | EC50 [1] | IC50 [2]
COc1cc(N2CCN(CC(C)(C)O)CC2)ccc1Nc1ncc(Br)c(NCc2cccc3c2C(C)(C)C(=O)N3)n1 [Example I-321] | < 50 nM | 2 nM
CC(C)(O)CN1CCC(c2ccc(Nc3ncc(Cl)c(NCc4cccc5c4C(C)(C)C(=O)N5)n3)cc2)CC1 [Example I-211] | 50 to 250 nM | 3 nM
Cc1cc(N2CCN(CC(C)(C)O)CC2)ccc1Nc1ncc(Br)c(NCc2cccc3c2C(C)(C)C(=O)N3)n1 [Example I-317] | < 50 nM | 6 nM
Cc1cc(C2CCN(CC#N)CC2)ccc1Nc1ncc(Cl)c(NCc2cccc3c2C(C)(C)C(=O)N3)n1 [Example I-375] | < 50 nM | 9 nM
Cc1cc(C2CCCN(CC(C)(C)O)C2)ccc1Nc1ncc(C(F)(F)F)c(NCc2cccc3c2C(C)(C)C(=O)N3)n1 (racemic) [Example I-306] | < 50 nM | 1 nM
COCCN1CCCC(c2ccc(Nc3ncc(Cl)c(NCc4cccc5c4C(C)(C)C(=O)N5)n3)c(C)c2)C1 (racemic) [Example I-373] | 50 to 250 nM | 0.4 nM
Cc1cc(C2CCN(CCO)CC2)ccc1Nc1ncc(C(F)(F)F)c(NCc2cccc3c2C(C)(C)C(=O)N3)n1 [Example I-355] | 250 to 3000 nM | 0.5 nM
COCCN1CCCC(c2ccc(Nc3ncc(Cl)c(NCc4cccc5c4C(C)(C)C(=O)N5)n3)cc2)C1 (racemic) [Example I-380] | 50 to 250 nM | 2 nM
CCc1cc(C2CCN(CCOC)CC2)ccc1Nc1ncc(Br)c(NCc2cccc3c2C(C)(C)C(=O)N3)n1 [Example I-367] | < 50 nM | 3 nM
Cc1cc([C@H]2CCCN(CC(C)(C)O)C2)ccc1Nc1ncc(Br)c(NCc2cccc3c2C(C)(C)C(=O)N3)n1 [Example I-319] | < 50 nM | 2 nM
CCc1cc(C2CCCN(CCOC)C2)ccc1Nc1ncc(Cl)c(NCc2cccc3c2C(C)(C)C(=O)N3)n1 (racemic) [Example I-384] | 50 to 250 nM | 6 nM
COc1cc(N2CCN(C)CC2)ccc1Nc1ncc(C(F)(F)F)c(NCc2cccc3c2C2(CC2)C(=O)N3)n1 [Example I-160] | 250 to 3000 nM | 4 nM
Cc1cc(C2CCN(C(=O)C(C)(C)O)CC2)ccc1Nc1ncc(Cl)c(NCc2cccc3c2C(C)(C)C(=O)N3)n1 [Example I-297] | 50 to 250 nM | 9 nM
CC(C)(O)CN1CCC(c2ccc(Nc3ncc(Cl)c(NCc4cccc5c4C(C)(C)C(=O)N5)n3)c3c2OCO3)CC1 [Example I-341] | < 50 nM | 0.9 nM
CC1(C)C(=O)Nc2cccc(CNc3nc(Nc4ccc(C5CCN(C(=O)C6CCCC(=O)N6)CC5)cc4)ncc3Br)c21 (stereo not drawn) [Example I-53] | 50 to 250 nM | 6 nM
CNC(=O)CN1CCCC(c2ccc(Nc3ncc(Br)c(NCc4cccc5c4C(C)(C)C(=O)N5)n3)c(C)c2)C1 (racemic) [Example I-366] | 50 to 250 nM | 2 nM
COCCN1CCC(n2cc(Nc3ncc(Cl)c(NCc4cccc5c4C(C)(C)C(=O)N5)n3)cn2)CC1 [Example I-215] | 250 to 3000 nM | 12 nM
COc1cc(C2CCN(C(=O)CN(C)C)CC2)ccc1Nc1ncc(Br)c(NCc2cccc3c2C(C)(C)C(=O)N3)n1 [Example I-68] | < 50 nM | 0.4 nM
COCCN1CCC(c2ccc(Nc3ncc(Br)c(NCc4cccc5c4C(C)(C)C(=O)N5)n3)cc2)CC1 [Example I-208] | 50 to 250 nM | 0.68 nM
Cc1cc(Nc2ncc(C(F)(F)F)c(NCc3cccc4c3C(C)(C)C(=O)N4)n2)c(F)cc1C1CCN(CC(C)(C)O)CC1 [Example I-311] | 50 to 250 nM | 15 nM
Cc1cc(C2CCN(C(=O)CN(C)C)CC2)ccc1Nc1ncc(Cl)c(NCc2cccc3c2C(C)(C)C(=O)N3)n1 [Example I-69] | < 50 nM | 1 nM
COc1cc(C2CCCN(CC(C)(C)O)C2)ccc1Nc1ncc(Cl)c(NCc2cccc3c2C(C)(C)C(=O)N3)n1 (racemic) [Example I-327] | < 50 nM | 1 nM
Cc1cc(C2CCCN(CCO)C2)ccc1Nc1ncc(C(F)(F)F)c(NCc2cccc3c2C(C)(C)C(=O)N3)n1 (racemic) [Example I-354] | < 50 nM | 1 nM
Cc1cc(C2CCN(C)CC2)ccc1Nc1ncc(Br)c(NCc2cccc3c2C(C)(C)C(=O)N3)n1 [Example I-103] | < 50 nM | 0.69 nM
